The record followed here is patent US20070249678A1, “SYNTHESIS AND USES OF PYROGLUTAMIC ACID DERIVATIVES” (Prodimed, S.A., priority 2006, published 2007).

Molecules are shown by their SMILES.

The data set can be described thus: Solubility observed during purification attempts. The data set is classed as physicochemical. The conditions noted are these: mixture of stereoisomers. From the text: Also, its immediate precursor BLAS-320(Ac) (1-(1-acetyl-3-acetylamino-5-carboxy-2-oxopyrrolidin-3-ylmethyl)pyridinium acetate) [drawing 7] was synthesized using different procedures.

As to `CC(=O)NC1(C[n+]2ccccc2)CC(C(=O)O)N(C(C)=O)C1=O` (stereo not shown) [BLAS-320(Ac), 1-(1-acetyl-3-acetylamino-5-carboxy-2-oxopyrrolidin-3-ylmethyl)pyridinium acetate], the “Solubility (in words)” value is “only soluble in water and methanol”.
